The target in data set [1] is Muscarinic acetylcholine receptor M3 (Homo sapiens, UniProt P20309). The experiment in a line: Displacement of [3H]NMS from human muscarinic M3 receptor expressed in CHO-K1 cell membrane assessed as inhibition constant incubated for 90 mins by competitive radioligand binding assay. The class given is cell membranes.
Data set [2] can be described thus: Cytotoxicity against CHO-K1 cells expressing human muscarinic receptor M1 incubated for 72 hrs by MTT assay. Type of data set: toxicity, cell-based. To be noted: Chinese hamster (Cricetulus griseus).
The nature of data set [3]: Lipophilicity, log P of compound at pH 7.4 by HPLC analysis. The class given is physicochemical. To be noted: buffer.
Data set [4] addresses T1, Muscarinic acetylcholine receptor M5 (Homo sapiens, UniProt P08912).
T1 sequence (P08912 whole entry): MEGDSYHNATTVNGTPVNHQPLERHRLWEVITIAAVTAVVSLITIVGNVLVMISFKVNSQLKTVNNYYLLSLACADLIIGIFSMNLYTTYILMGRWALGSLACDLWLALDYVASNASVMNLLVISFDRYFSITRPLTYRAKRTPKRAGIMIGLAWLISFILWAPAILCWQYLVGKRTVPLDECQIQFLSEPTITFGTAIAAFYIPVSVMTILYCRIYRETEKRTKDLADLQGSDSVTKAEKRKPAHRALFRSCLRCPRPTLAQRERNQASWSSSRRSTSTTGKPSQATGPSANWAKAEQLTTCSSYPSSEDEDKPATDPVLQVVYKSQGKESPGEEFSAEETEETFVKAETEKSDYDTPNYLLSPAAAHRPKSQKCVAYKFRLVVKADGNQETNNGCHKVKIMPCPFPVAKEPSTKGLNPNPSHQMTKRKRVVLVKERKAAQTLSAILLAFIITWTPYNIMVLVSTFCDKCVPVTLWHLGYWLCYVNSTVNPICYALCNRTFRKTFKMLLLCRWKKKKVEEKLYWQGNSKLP
The experiment in a line: Displacement of [3H]NMS from human muscarinic M5 receptor expressed in CHO-K1 cell membrane assessed as inhibition constant incubated for 90 mins by competitive radioligand binding assay. Type of data set: cell membranes.

The target in data set [5] is T2, Muscarinic acetylcholine receptor M1 (Homo sapiens, UniProt P11229).
T2 sequence (P11229 whole entry): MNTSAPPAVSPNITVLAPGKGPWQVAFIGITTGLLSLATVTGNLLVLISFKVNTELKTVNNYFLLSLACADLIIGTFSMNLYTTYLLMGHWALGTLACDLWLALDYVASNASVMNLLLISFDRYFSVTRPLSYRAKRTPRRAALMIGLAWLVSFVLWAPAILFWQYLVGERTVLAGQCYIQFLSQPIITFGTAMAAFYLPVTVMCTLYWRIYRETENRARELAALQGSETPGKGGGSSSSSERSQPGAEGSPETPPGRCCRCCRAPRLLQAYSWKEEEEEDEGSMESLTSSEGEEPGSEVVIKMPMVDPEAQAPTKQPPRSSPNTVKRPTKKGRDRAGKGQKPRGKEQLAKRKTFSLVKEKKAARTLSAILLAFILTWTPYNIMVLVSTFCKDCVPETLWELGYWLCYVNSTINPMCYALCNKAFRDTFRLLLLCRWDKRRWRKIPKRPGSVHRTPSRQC
The experiment in a line: Displacement of [3H]NMS from human muscarinic M1 receptor expressed in CHO-K1 cell membrane assessed as inhibition constant incubated for 90 mins by competitive radioligand binding assay. Type of data set: cell membranes.

In data set [6] the target is T3, Muscarinic acetylcholine receptor M2 (Homo sapiens, UniProt P08172).
T3 sequence (P08172 whole entry): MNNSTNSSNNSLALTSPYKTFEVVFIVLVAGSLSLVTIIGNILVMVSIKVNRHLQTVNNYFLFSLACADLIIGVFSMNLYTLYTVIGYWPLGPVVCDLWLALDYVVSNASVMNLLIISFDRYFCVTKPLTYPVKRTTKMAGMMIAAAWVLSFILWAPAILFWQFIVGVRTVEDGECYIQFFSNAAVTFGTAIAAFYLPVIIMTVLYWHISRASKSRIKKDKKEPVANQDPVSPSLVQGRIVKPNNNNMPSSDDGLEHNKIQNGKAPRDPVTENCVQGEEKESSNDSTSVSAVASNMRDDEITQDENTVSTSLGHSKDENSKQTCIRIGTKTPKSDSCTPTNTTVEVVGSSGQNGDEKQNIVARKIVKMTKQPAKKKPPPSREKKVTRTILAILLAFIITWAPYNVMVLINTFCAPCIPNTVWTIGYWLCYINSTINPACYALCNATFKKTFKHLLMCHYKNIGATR
The experiment in a line: Displacement of [3H]NMS from human muscarinic M2 receptor expressed in CHO-K1 cell membrane assessed as inhibition constant incubated for 90 mins by competitive radioligand binding assay. The class given is cell membranes.

For data set [7], the target named is T4, Muscarinic acetylcholine receptor M4 (Homo sapiens, UniProt P08173).
T4 sequence (P08173 whole entry): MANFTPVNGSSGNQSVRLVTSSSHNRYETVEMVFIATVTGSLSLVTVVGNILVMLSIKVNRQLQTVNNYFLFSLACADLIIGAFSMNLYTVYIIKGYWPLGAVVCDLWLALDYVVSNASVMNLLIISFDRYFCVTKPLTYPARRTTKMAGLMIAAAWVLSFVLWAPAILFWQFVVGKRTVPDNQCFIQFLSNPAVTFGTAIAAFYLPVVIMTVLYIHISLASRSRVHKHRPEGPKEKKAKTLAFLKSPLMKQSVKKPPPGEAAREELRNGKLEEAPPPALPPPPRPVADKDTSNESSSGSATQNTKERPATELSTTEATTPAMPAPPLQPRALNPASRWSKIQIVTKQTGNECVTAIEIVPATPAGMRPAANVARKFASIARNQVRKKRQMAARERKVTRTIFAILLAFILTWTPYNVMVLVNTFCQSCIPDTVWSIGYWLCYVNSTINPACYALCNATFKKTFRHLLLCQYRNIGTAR
The experiment in a line: Displacement of [3H]NMS from human muscarinic M4 receptor expressed in CHO-K1 cell membrane assessed as inhibition constant incubated for 90 mins by competitive radioligand binding assay. The class given is cell membranes.

Data set [8] is filed under the species Homo sapiens. The experiment in a line: Selectivity ratio of Ki for human muscarinic M3 receptor expressed in CHO-K1 cells to Ki for human muscarinic M5 receptor expressed in CHO-K1 cells. The class given is cell-based.
Data set [9] has as its target Muscarinic acetylcholine receptor M2 and M5 (Homo sapiens) (UniProt P08172+P08912). The experiment in a line: Selectivity ratio of Ki for human muscarinic M2 receptor expressed in CHO-K1 cells to Ki for human muscarinic M5 receptor expressed in CHO-K1 cells. Type of data set: cell-based.
The species named for data set [10] is Homo sapiens. The experiment in a line: Selectivity ratio of Ki for human muscarinic M1 receptor expressed in CHO-K1 cells to Ki for human muscarinic M5 receptor expressed in CHO-K1 cells. Type of data set: cell-based.
The species entered for data set [11] is Homo sapiens. The experiment in a line: Selectivity ratio of Ki for human muscarinic M4 receptor expressed in CHO-K1 cells to Ki for human muscarinic M5 receptor expressed in CHO-K1 cells. The class given is cell-based.
Data set [12] deals with T5, Muscarinic acetylcholine receptor M1 (Homo sapiens) (UniProt P11229).
T5 sequence (whole entry): T2 sequence (P11229 whole entry)
The experiment in a line: Agonist activity at human muscarinic M1 receptor expressed in CHO-K1 cell membrane upto 100 uM by fluorescence based assay. Type of data set: functional, cell membranes.

The target in data set [13] is T5, Muscarinic acetylcholine receptor M1 (Homo sapiens). The experiment in a line: Antagonist activity at human muscarinic M1 receptor expressed in CHO-K1 cell membrane assessed as reduction in carbachol-induced ca2+ influx by fluorescence based assay. Type of data set: functional, cell membranes. The following applies: filed as antagonist.

The source made the active and inactive calls. The calls are words filed in the database; no cut-off is given here.

Muscarinic acetylcholine receptor M3, sequence (P20309 whole entry): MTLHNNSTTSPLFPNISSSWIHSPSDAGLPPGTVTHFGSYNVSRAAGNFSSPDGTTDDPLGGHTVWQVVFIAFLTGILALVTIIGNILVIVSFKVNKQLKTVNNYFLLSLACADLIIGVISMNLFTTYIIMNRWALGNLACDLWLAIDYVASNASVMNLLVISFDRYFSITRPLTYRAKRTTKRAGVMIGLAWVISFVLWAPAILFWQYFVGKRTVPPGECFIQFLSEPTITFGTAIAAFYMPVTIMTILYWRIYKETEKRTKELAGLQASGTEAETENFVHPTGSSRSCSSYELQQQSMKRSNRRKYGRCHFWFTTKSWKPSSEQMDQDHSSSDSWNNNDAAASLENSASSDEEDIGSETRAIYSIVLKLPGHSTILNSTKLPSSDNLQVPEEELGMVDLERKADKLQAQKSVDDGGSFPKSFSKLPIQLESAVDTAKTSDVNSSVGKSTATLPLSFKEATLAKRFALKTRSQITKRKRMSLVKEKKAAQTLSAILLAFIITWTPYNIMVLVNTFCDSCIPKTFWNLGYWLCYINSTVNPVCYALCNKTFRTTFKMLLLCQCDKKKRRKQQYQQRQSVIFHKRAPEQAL

In the case of `CN1CCCC(Oc2nc3ccccc3n2-c2ccccc2)C1` (racemic), the Ki was 236 nM in data set [1]; 77 nM in [4]; 288 nM in [5]; 385 nM in data set [6]; 152 nM in data set [7]. In data set [2], this compound yielded a half-inhibitory concentration (IC50) at 72 h not below 100000 nM. For the same compound, in data set [3], the logP is on record as 3.2.

For `CN1CC(Oc2nc3ccccc3n2-c2ccccc2)C1`, the inhibition constant (Ki) in data set [1], in data set [4], in data set [5], in data set [6] and in [7] was more than 1000 nM throughout. Further, in data set [2], the 50% inhibitory concentration (IC50) at 72 h is not below 100000 nM. In data set [3], this compound displayed a log partition coefficient (logP) of 2.6.

As to `c1ccc(-n2c(O[C@H]3CN4CCC3CC4)nc3ccccc32)cc1`, the inhibition constant (Ki) in data set [1] stood at 3.7 nM; in [4], 2.6 nM; in data set [5], 16 nM; in [6], 70 nM; in data set [7], 9.4 nM. Besides, the IC50 at 72 h in [2] is not below 100000 nM. Besides, the logP in data set [3] is listed as 1.2. The Ratio Ki (in the data set filed under Homo sapiens [8]; in data set [9]; in the data set filed under Homo sapiens [10]; in the data set filed under Homo sapiens [11]) was 1.4 in each case.

Regarding `CN1CCCC(OC(=O)N(c2ccccc2)c2ccccc2)C1` (stereo not given), the inhibitory constant (Ki) in data set [1], in [4], in [5], in data set [6] and in data set [7] was more than 1000 nM in each case. The compound further showed an IC50 at 72 h in data set [2] not below 100000 nM. Also, the lipophilicity (logP) in data set [3] came out at 2.69.

`CN1[C@@H]2CC[C@H]1C[C@H](OC(=O)N(c1ccccc1)c1ccccc1)C2`: the outcome in [12] was inactive. The inhibition constant (Ki) in data set [1] stood at 108 nM; in data set [4] it was 75 nM; in data set [5] it was 44 nM; in [6] it was 222 nM; in [7], 50 nM. In data set [2], this compound gave a half-inhibitory concentration (IC50) at 72 h not below 100000 nM. In data set [3], this compound returned a logP of 1.58. In addition, the Activity result in [13] was “Dose-Dependent Effect”.

For `CN1CC(OC(=O)N(c2ccccc2)c2ccccc2)C1`, the inhibition constant Ki in [1] is 339 nM; in data set [4], more than 1000 nM; in [5] it was more than 1000 nM; in [6], more than 1000 nM; in data set [7], 244 nM. In [2], this compound had a half-inhibitory concentration (IC50) at 72 h not below 100000 nM. The logP in data set [3] came to 1.82.

With `CN1CCC(OC(=O)N(c2ccccc2)c2ccccc2)C1` (stereo not given), the outcome in [12] was inactive. Further, the inhibitory constant (Ki) is 123 nM in [1]; 105 nM in [4]; 217 nM in data set [5]; more than 1000 nM in data set [6]; 156 nM in data set [7]. For the same compound, the IC50 at 72 h in data set [2] is not below 100000 nM. This compound yielded a logP in data set [3] of 1.91. Moreover, the Activity entry in [13] is “Dose-Dependent Effect”.

As to `CN1CCC(Oc2nc3ccccc3n2-c2ccccc2)CC1`, the outcome in [12] was inactive. The Ki in data set [1] turned out to be 21 nM; in data set [4], 18 nM; in [5] it was 20 nM; in data set [6], 108 nM; in data set [7] it was 32 nM. Moreover, in data set [2], the 50% inhibitory concentration (IC50) at 72 h was not below 100000 nM. For the same compound, in data set [3], the logP amounted to 2.94. Besides, the Activity result in data set [13] is “Dose-Dependent Effect”.

Consider `CN1[C@@H]2CC[C@H]1C[C@@H](OC(=O)N(c1ccccc1)c1ccccc1)C2`, for which the Ki in data set [1], in [4], in data set [5], in [6] and in data set [7] was more than 1000 nM each time. Further, the IC50 at 72 h in data set [2] is not below 100000 nM. The same compound had a log partition coefficient (logP) in data set [3] of 2.69.

As to `CN1CCN(Cc2nc3cccnc3n2-c2ccccc2C(=O)O)CC1`, the Ki in data set [1], in data set [6] and in data set [7] was more than 1000 nM each time.

As for `CN1CCC(OC(=O)N(c2ccccc2)c2ccccc2)CC1`, the outcome in [12] was inactive. For the same compound, the inhibition constant Ki in [1] was 121 nM; in data set [4], 255 nM; in [5], 255 nM; in data set [6], more than 1000 nM; in data set [7], 158 nM. This compound yielded an IC50 at 72 h in data set [2] not below 100000 nM. The lipophilicity (logP) in data set [3] came to 2.11. In addition, the Activity result in [13] is “Dose-Dependent Effect”.

For the compound `CN1[C@@H]2C[C@@H](Oc3nc4ccccc4n3-c3ccccc3)C[C@H]1[C@@H]1O[C@@H]12`, the Ki in data set [1] is 350 nM; in data set [4] it was 164 nM; in data set [5], 285 nM; in data set [6], more than 1000 nM; in data set [7], 189 nM. For the same compound, the half-inhibitory concentration (IC50) at 72 h in data set [2] is not below 100000 nM. The compound further had a lipophilicity (logP) in data set [3] of 3.04.

Consider `CN1[C@@H]2CC[C@H]1C[C@H](Oc1nc3ccccc3n1-c1ccccc1)C2`, for which the result in [12] was inactive. Moreover, the Ki in data set [1] was 17 nM; in data set [4], 8.1 nM; in data set [5], 9 nM; in data set [6] it was 16 nM; in data set [7], 11 nM. Besides, the IC50 at 72 h in data set [2] was not below 100000 nM. The same compound showed a logP in [3] of 3.05. Further, in [13], the Activity entry is “Dose-Dependent Effect”.

With `CN1[C@@H]2C[C@@H]3C[C@H]1C(O3)C2OC(=O)N(c1ccccc1)c1ccccc1` (stereo not given in full), in data set [12], the result was inactive. For the same compound, the Ki in data set [1], in data set [4], in data set [5], in [6] and in [7] was more than 1000 nM in each case. In data set [2], this compound returned an IC50 at 72 h not below 100000 nM. The same compound gave a lipophilicity (logP) in data set [3] of 1.58. Further, the Activity entry in data set [13] is “Dose-Dependent Effect”.
